Results: PubChem BioAssay (NCI)
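A five-concentration, 48-hour dose response in 96-well plates underlies each endpoint, interpolated linearly between surrounding concentrations. TGI denotes the concentration required for complete inhibition of growth.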

Experiments:
Test in all cases: inhibition of tumour cell growth, NCI panel, 48 h
[1] = tested on: NCI-H460 lung
[2] = tested on: SF-268 CNS
[3] = tested on: OVCAR-3 ovarian
[4] = tested on: HT29 colon
[5] = tested on: SK-MEL-2 melanoma
[6] = tested on: DMS 114 small cell lung
[7] = tested on: RPMI-8226 leukemia
[8] = tested on: CAKI-1 renal
[9] = tested on: OVCAR-5 ovarian
[10] = tested on: MOLT-4 leukemia
[11] = tested on: A498 renal
[12] = tested on: OVCAR-4 ovarian
[13] = tested on: COLO 205 colon
[14] = tested on: HOP-62 NSCLC
[15] = tested on: ACHN renal
[16] = tested on: SNB-75 CNS
[17] = tested on: HS 578T breast
[18] = tested on: MCF7 breast
[19] = tested on: T-47D breast
[20] = tested on: DU-145 prostate

O=C(CSc1nnc(Cc2ccccc2)o1)Nc1ccccc1Cl
TGI [1]: > 100 µM
TGI [2]: > 100 µM
TGI [3]: > 100 µM
TGI [4]: > 100 µM
TGI [5]: > 100 µM
TGI [6]: > 100 µM
TGI [7]: > 100 µM
TGI [8]: > 100 µM
TGI [9]: > 100 µM
TGI [10]: > 100 µM
TGI [11]: > 100 µM
TGI [12]: > 100 µM
TGI [13]: > 100 µM
TGI [14]: > 100 µM
TGI [15]: > 100 µM

Fc1ccc2c(c1)SC1Oc3ccccc3-c3c1c-2nn3-c1ccccc1 (stereo not given)
TGI [1]: > 100 µM
TGI [2]: > 100 µM
TGI [3]: > 100 µM
TGI [4]: > 100 µM
TGI [5]: > 100 µM
TGI [16]: > 100 µM
TGI [6]: > 100 µM
TGI [7]: > 100 µM
TGI [9]: > 100 µM
TGI [10]: > 100 µM
TGI [11]: > 100 µM
TGI [13]: > 100 µM
TGI [14]: > 100 µM
TGI [15]: > 100 µM

Cc1cc(Cl)ccc1NC(=O)C(=O)Cc1ccc([N+](=O)[O-])c([N+](=O)[O-])c1CC(=O)C(=O)Nc1ccc(Cl)cc1C
TGI [1]: > 100 µM
TGI [2]: > 100 µM
TGI [3]: > 100 µM
TGI [4]: > 100 µM
TGI [5]: > 100 µM
TGI [16]: > 100 µM
TGI [6]: > 100 µM
TGI [7]: > 100 µM
TGI [8]: > 100 µM
TGI [9]: > 100 µM
TGI [10]: > 100 µM
TGI [11]: > 100 µM
TGI [12]: > 100 µM
TGI [13]: > 100 µM
TGI [14]: > 100 µM
TGI [15]: > 100 µM

COc1cc(C(C#N)NNC(=O)Cc2ccccc2)cc(OC)c1OC (stereo not given)
TGI [1]: > 100 µM
TGI [2]: > 100 µM
TGI [3]: > 100 µM
TGI [4]: > 100 µM
TGI [5]: > 100 µM
TGI [16]: > 100 µM
TGI [6]: > 100 µM
TGI [7]: > 100 µM
TGI [8]: > 100 µM
TGI [9]: > 100 µM
TGI [10]: > 100 µM
TGI [12]: > 100 µM
TGI [13]: > 100 µM
TGI [14]: > 100 µM
TGI [15]: > 100 µM

CC(C)[C@H]1CO[C@@H]2O[C@H](C)CC(=O)N21
TGI [1]: > 100 µM
TGI [2]: > 100 µM
TGI [3]: > 100 µM
TGI [4]: > 100 µM
TGI [5]: > 100 µM
TGI [16]: > 100 µM
TGI [6]: > 100 µM
TGI [7]: > 100 µM
TGI [8]: > 100 µM
TGI [10]: > 100 µM
TGI [12]: > 100 µM
TGI [13]: > 100 µM
TGI [14]: > 100 µM
TGI [15]: > 100 µM

Cc1ccc(-c2cn3c(nc4ccccc43)c(-c3ccccc3)n2)cc1
TGI [17]: > 77.2 µM
TGI [1]: > 100 µM
TGI [2]: > 96.2 µM
TGI [3]: > 100 µM
TGI [18]: > 100 µM
TGI [4]: > 100 µM
TGI [5]: 58.3 µM
TGI [16]: > 47.7 µM
TGI [7]: > 100 µM
TGI [8]: > 100 µM
TGI [19]: > 91.7 µM
TGI [9]: > 100 µM
TGI [10]: > 100 µM
TGI [20]: > 100 µM
TGI [11]: > 86.5 µM
TGI [12]: > 100 µM
TGI [13]: > 100 µM
TGI [14]: 43.7 µM
TGI [15]: > 100 µM

Cc1cc(S(=O)(=O)Nc2nc3ccccc3[nH]2)c(S)cc1Cl
TGI [17]: > 100 µM
TGI [1]: > 100 µM
TGI [2]: > 100 µM
TGI [3]: > 100 µM
TGI [18]: > 100 µM
TGI [4]: > 100 µM
TGI [5]: > 100 µM
TGI [16]: > 100 µM
TGI [7]: > 100 µM
TGI [8]: > 100 µM
TGI [19]: > 100 µM
TGI [9]: > 100 µM
TGI [10]: > 100 µM
TGI [20]: > 100 µM
TGI [11]: > 100 µM
TGI [12]: > 100 µM
TGI [13]: > 100 µM
TGI [14]: > 100 µM
TGI [15]: > 100 µM

CC(C)(Cl)C(Br)CCC(CBr)=C(Cl)CCl (mixture of isomers)
TGI [17]: > 10 µM
TGI [1]: > 10 µM
TGI [2]: 5.67 µM
TGI [3]: > 5.48 µM
TGI [18]: 4.79 µM
TGI [4]: 3.77 µM
TGI [5]: 4.41 µM
TGI [16]: 7.93 µM
TGI [7]: 4.39 µM
TGI [8]: 5.67 µM
TGI [19]: 5.33 µM
TGI [9]: > 8.21 µM
TGI [10]: 1.96 µM
TGI [20]: > 10 µM
TGI [11]: > 5.56 µM
TGI [12]: > 5.87 µM
TGI [13]: 1.11 µM
TGI [14]: > 6.85 µM
TGI [15]: > 8.98 µM

N#CC(c1ccccc1)N(CCc1ccccc1)C(=O)c1ccccc1 (stereo not given)
TGI [17]: 86.3 µM
TGI [1]: > 100 µM
TGI [2]: > 86.5 µM
TGI [3]: > 100 µM
TGI [18]: > 100 µM
TGI [4]: > 100 µM
TGI [5]: > 100 µM
TGI [16]: 57.2 µM
TGI [7]: > 100 µM
TGI [8]: > 100 µM
TGI [19]: > 100 µM
TGI [9]: > 100 µM
TGI [10]: > 100 µM
TGI [20]: > 100 µM
TGI [11]: > 100 µM
TGI [12]: > 100 µM
TGI [13]: > 100 µM
TGI [14]: > 85.8 µM
TGI [15]: > 100 µM

Cc1ccc(/C=C/C(=O)C(C)C)cc1
TGI [1]: > 100 µM
TGI [2]: > 100 µM
TGI [3]: 83.1 µM
TGI [4]: > 100 µM
TGI [5]: > 100 µM
TGI [16]: > 100 µM
TGI [6]: > 100 µM
TGI [7]: 72.7 µM
TGI [9]: 53.7 µM
TGI [10]: 76.9 µM
TGI [11]: > 100 µM
TGI [12]: > 100 µM
TGI [13]: > 100 µM
TGI [15]: > 100 µM

Cc1nc2nn(Cc3ccccc3)cc2c(=O)o1
TGI [1]: > 100 µM
TGI [2]: > 100 µM
TGI [3]: > 100 µM
TGI [4]: > 100 µM
TGI [5]: > 100 µM
TGI [16]: > 100 µM
TGI [6]: > 100 µM
TGI [7]: > 100 µM
TGI [9]: > 100 µM
TGI [10]: > 100 µM
TGI [11]: > 100 µM
TGI [13]: > 100 µM
TGI [14]: > 100 µM
TGI [15]: > 100 µM

FC(F)(F)c1ccc2c(c1)nc(Cc1ccc(Cl)c(Cl)c1)n2CC1CCCN2CCCCC12 (stereo not given)
TGI [17]: 34.4 µM
TGI [1]: 52.4 µM
TGI [2]: > 100 µM
TGI [3]: 82.3 µM
TGI [18]: 62.9 µM
TGI [4]: 28.2 µM
TGI [5]: 76.3 µM
TGI [16]: > 100 µM
TGI [7]: > 100 µM
TGI [8]: > 100 µM
TGI [19]: > 100 µM
TGI [9]: 46.2 µM
TGI [10]: > 100 µM
TGI [20]: > 100 µM
TGI [11]: 67.6 µM
TGI [12]: > 100 µM
TGI [13]: 33.5 µM
TGI [14]: > 100 µM
TGI [15]: > 100 µM

CCN(CC)CCOc1ccc(N2Cc3ccccc3C2=O)cc1
TGI [17]: > 10 µM
TGI [1]: > 10 µM
TGI [2]: > 10 µM
TGI [3]: > 10 µM
TGI [18]: > 10 µM
TGI [4]: > 10 µM
TGI [5]: > 10 µM
TGI [16]: > 10 µM
TGI [7]: > 10 µM
TGI [8]: > 10 µM
TGI [19]: > 10 µM
TGI [9]: > 10 µM
TGI [10]: > 10 µM
TGI [20]: > 10 µM
TGI [11]: > 10 µM
TGI [12]: > 10 µM
TGI [13]: > 10 µM
TGI [14]: > 10 µM
TGI [15]: > 10 µM

Nc1ccc(C(=O)NN2C(=O)C(Cl)C2c2cc(Br)cc(Br)c2O)cc1 (stereo not given)
TGI [1]: > 100 µM
TGI [2]: 41.6 µM
TGI [4]: > 100 µM
TGI [5]: > 100 µM
TGI [16]: > 100 µM
TGI [6]: 25.4 µM
TGI [7]: > 100 µM
TGI [8]: 64 µM
TGI [9]: > 100 µM
TGI [10]: > 100 µM
TGI [12]: > 100 µM
TGI [13]: > 100 µM
TGI [14]: > 100 µM
TGI [15]: 61.9 µM
